Source: ChEMBL document CHEMBL4219211, “Design and discovery of thioether and nicotinamide containing sorafenib analogues as multikinase inhibitors targeting B-Raf, B-RafV600E and VEGFR-2” (Bioorg Med Chem, 2018)
The source made the active and inactive calls. No cut-off for these calls is given here.

Key:
[1] = molecular target: Serine/threonine-protein kinase B-raf (Homo sapiens, UniProt P15056); assay: Inhibition of B-Raf (unknown origin) using MEK1 as substrate measured after 2 hrs by ELISA
[2] = molecular target: Serine/threonine-protein kinase B-raf (Homo sapiens, UniProt P15056, V600E); assay: Inhibition of B-Raf V600E mutant (unknown origin) using MEK1 as substrate measured after 2 hrs by ELISA
[3] = molecular target: Vascular endothelial growth factor receptor 2 (Homo sapiens, UniProt P35968); assay: Inhibition of VEGFR2 (unknown origin) using FAM-labelled peptide as substrate pretreated for 10 mins followed by substrate addition measured after 30 mins by caliper mobility shift assay
HCT-116 = assay: cells; settings: Homo sapiens, HCT-116, 48 h
Description: Cytotoxicity against human HCT116 cells after 48 hrs by MTT assay

B16-BL6 = assay: cells; settings: Mus musculus, B16-BL6, 48 h
Description: Cytotoxicity against mouse B16-BL6 cells after 48 hrs by MTT assay

[4] = molecular target: T1, Receptor-type tyrosine-protein kinase FLT3 (Homo sapiens, UniProt P36888); assay: Inhibition of FLT3 (unknown origin)
T1 sequence (P36888 whole entry): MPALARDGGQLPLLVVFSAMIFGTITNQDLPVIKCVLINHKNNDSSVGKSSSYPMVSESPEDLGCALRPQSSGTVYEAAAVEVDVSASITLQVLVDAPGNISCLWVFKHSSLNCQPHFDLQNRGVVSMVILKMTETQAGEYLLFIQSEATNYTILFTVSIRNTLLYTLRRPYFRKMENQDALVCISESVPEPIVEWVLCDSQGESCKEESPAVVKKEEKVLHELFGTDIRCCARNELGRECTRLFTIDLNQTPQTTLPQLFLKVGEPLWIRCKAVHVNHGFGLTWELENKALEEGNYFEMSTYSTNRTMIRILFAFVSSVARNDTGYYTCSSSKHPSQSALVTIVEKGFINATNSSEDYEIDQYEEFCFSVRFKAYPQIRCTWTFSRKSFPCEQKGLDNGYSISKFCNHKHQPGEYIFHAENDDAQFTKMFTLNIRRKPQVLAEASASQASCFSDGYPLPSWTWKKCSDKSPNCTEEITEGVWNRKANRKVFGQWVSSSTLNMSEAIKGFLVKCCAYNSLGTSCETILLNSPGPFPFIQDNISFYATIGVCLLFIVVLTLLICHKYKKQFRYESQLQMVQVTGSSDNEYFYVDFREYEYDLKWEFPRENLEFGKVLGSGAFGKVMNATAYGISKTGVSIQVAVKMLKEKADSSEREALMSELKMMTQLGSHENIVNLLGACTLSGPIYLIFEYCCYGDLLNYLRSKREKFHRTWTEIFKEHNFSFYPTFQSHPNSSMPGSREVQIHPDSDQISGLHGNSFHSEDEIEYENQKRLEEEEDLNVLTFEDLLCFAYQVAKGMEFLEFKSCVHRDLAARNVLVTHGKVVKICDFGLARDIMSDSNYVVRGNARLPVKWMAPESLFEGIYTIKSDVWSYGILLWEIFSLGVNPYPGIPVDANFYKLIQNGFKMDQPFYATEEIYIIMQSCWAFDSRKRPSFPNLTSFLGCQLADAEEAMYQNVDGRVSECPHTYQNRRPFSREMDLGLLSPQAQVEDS

[5] = molecular target: Mast/stem cell growth factor receptor Kit (Homo sapiens, UniProt P10721); assay: Inhibition of c-KIT (unknown origin)
[6] = molecular target: Epidermal growth factor receptor (Homo sapiens, UniProt P00533); assay: Inhibition of EGFR (unknown origin)
HUVEC [7] = assay: Antiangiogenic activity against HUVEC assessed as reduction in tube formation at 0.05 uM after 6 hrs by matrigel based phase contrast microscopic analysis; assay type: functional, Homo sapiens; parameters: scale not given: the % may be the effect or the level left
HUVEC [8] = assay: Antiangiogenic activity against HUVEC assessed as reduction in tube formation at 0.1 uM after 6 hrs by matrigel based phase contrast microscopic analysis; assay type: functional, Homo sapiens; parameters: scale not given: the % may be the effect or the level left

Sequence of Serine/threonine-protein kinase B-raf (Homo sapiens, UniProt P15056) (P15056 whole entry): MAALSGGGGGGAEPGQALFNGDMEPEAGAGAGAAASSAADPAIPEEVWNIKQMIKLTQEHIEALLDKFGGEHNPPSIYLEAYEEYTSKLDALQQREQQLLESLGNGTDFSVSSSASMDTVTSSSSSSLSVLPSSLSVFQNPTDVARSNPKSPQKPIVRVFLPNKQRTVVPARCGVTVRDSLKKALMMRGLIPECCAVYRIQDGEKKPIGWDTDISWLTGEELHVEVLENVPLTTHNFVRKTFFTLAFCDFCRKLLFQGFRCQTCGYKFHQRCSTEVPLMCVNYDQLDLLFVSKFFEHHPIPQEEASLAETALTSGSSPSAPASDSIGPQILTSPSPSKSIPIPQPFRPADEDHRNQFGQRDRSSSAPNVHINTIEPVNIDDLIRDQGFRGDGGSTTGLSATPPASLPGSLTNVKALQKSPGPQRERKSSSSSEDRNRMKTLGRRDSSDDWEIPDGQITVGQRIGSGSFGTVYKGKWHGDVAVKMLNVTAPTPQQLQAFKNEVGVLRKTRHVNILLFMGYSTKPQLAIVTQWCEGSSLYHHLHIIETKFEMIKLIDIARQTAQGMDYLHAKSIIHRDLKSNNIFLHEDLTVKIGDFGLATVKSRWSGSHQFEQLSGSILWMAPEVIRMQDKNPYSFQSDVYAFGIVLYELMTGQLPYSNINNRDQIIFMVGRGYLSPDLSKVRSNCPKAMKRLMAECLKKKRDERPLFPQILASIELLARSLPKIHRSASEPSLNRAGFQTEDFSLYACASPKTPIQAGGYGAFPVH
Sequence of Mast/stem cell growth factor receptor Kit (P10721 whole entry): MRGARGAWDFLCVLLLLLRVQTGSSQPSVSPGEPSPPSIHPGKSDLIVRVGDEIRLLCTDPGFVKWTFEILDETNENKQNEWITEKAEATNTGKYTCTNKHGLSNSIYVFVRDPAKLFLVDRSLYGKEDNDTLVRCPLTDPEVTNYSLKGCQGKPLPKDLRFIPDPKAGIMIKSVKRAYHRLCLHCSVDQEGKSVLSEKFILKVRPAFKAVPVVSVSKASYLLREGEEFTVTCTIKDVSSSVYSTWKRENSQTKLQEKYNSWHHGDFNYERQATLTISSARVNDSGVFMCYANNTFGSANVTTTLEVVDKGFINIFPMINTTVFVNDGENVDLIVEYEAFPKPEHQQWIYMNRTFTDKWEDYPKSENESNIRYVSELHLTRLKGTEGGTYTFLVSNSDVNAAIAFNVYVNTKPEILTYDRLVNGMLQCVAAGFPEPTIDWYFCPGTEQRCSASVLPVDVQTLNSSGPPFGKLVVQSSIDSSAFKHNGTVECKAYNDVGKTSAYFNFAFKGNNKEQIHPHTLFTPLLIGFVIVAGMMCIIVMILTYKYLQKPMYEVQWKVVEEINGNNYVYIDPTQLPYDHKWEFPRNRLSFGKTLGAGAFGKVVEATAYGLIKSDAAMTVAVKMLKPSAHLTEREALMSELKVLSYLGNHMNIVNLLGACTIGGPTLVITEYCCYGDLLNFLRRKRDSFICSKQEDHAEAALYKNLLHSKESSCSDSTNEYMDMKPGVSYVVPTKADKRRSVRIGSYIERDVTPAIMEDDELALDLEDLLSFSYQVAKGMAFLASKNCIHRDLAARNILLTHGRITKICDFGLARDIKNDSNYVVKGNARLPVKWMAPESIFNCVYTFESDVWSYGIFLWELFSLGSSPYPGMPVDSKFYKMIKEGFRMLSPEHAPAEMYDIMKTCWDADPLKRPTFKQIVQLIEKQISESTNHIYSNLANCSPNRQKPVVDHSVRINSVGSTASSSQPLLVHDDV
Sequence of Serine/threonine-protein kinase B-raf (Homo sapiens, UniProt P15056, V600E) (P15056 2-766 V600E limits assumed): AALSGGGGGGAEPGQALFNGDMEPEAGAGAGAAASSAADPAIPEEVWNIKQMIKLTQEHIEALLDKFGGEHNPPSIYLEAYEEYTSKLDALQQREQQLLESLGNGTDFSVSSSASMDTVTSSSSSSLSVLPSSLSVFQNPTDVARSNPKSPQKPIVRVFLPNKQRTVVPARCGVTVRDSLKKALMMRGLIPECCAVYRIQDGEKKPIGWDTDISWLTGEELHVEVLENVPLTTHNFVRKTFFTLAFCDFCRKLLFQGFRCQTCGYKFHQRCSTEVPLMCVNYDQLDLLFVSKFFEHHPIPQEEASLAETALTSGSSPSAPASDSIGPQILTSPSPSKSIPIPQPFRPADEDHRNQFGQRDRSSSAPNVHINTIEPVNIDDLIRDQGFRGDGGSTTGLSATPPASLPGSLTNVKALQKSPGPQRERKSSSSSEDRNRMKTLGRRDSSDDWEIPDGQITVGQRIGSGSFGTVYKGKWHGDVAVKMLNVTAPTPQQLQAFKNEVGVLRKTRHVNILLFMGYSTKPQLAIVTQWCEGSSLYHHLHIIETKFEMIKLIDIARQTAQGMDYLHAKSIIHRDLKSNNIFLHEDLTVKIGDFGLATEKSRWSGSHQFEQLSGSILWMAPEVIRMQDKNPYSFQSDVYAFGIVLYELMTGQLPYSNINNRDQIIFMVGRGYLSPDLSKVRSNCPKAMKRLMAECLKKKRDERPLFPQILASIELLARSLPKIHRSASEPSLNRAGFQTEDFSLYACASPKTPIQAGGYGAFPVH
Sequence of Vascular endothelial growth factor receptor 2 (P35968 whole entry): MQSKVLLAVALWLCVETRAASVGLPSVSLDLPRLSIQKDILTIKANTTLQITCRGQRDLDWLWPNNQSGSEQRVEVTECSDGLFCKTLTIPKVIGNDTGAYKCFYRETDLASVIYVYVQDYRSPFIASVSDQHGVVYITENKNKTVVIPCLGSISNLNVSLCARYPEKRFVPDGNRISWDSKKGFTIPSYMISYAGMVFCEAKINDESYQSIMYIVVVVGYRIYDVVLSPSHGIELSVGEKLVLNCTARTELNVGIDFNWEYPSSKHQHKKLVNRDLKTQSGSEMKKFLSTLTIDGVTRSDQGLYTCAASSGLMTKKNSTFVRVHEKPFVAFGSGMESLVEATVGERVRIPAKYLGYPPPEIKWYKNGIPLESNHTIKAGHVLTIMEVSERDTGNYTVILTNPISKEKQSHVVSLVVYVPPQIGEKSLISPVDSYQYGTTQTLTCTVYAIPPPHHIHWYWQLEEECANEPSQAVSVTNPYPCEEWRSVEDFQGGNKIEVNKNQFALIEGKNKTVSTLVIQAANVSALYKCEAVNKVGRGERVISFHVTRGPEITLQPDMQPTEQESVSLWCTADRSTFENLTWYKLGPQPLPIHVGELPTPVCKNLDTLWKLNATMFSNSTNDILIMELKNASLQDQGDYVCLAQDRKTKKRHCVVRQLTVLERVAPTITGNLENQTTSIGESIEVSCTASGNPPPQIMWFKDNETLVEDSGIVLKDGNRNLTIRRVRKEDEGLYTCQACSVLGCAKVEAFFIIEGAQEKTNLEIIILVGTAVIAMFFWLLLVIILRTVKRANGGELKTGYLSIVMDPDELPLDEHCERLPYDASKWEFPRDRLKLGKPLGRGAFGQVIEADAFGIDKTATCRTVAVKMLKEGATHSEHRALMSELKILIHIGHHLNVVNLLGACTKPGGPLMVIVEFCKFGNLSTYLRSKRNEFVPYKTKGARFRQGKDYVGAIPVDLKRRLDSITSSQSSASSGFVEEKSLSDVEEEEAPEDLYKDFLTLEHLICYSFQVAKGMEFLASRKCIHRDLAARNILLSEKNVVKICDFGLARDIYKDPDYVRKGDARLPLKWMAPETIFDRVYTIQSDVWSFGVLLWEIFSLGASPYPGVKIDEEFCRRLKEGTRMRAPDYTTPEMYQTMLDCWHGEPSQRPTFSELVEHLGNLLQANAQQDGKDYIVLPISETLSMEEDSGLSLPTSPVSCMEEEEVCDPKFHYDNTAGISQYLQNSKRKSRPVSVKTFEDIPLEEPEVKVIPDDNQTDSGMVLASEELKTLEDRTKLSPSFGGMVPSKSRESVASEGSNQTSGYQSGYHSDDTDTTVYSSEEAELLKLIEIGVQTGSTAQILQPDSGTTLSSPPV
Sequence of Epidermal growth factor receptor (P00533 whole entry): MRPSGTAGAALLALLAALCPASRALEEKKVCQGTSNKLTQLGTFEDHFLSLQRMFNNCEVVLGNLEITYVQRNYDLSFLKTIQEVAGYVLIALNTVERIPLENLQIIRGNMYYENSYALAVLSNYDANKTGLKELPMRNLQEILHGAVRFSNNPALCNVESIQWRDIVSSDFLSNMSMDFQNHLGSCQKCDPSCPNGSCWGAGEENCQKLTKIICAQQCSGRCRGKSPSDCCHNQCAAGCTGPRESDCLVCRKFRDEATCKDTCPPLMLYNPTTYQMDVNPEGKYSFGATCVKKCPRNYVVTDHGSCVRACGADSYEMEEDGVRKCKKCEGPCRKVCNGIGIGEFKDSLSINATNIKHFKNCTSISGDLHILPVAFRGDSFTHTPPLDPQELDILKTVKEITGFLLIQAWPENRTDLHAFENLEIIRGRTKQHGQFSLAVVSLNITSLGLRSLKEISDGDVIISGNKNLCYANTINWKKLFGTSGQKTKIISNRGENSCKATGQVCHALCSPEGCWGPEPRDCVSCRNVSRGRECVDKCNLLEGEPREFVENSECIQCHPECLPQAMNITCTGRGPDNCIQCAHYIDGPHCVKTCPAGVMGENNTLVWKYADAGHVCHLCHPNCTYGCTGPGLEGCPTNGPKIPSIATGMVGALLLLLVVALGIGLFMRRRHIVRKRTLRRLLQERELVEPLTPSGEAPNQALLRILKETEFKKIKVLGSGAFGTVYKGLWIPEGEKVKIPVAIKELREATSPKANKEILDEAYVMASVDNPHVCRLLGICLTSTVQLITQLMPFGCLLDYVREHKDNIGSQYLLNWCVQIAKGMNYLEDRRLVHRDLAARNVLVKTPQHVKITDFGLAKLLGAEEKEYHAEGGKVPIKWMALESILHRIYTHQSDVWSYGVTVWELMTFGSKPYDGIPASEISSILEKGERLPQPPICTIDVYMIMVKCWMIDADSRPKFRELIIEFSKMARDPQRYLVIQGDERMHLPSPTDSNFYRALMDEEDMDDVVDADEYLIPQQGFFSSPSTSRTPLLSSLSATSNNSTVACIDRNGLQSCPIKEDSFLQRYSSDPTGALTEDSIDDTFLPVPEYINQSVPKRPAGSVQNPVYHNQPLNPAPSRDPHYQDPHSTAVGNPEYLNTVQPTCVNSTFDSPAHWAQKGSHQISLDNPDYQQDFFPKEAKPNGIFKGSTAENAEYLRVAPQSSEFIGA

Compound	IC50 [1] [nM]	IC50 [2] [nM]	IC50 [3] [nM]	IC50 (HCT-116) [nM]	IC50 (B16-BL6) [nM]	IC50 [4] [nM]	IC50 [5] [nM]	IC50 [6] [nM]	Activity (HUVEC [7]) [%]	Activity (HUVEC [7]; Homo sapiens)	Activity (HUVEC [8]) [%]
CNC(=O)c1ccc(Sc2ccc(NC(=S)Nc3ccc(OC(F)(F)F)cc3)cc2)nc1	9870	> 10000	> 10000	> 100000	> 100000						
CNC(=O)c1ccc(Sc2ccc(NC(=S)Nc3cc(C(F)(F)F)cc(C(F)(F)F)c3)cc2)nc1			277	16600	36100						
CNC(=O)c1ccc(Sc2cccc(NC(=S)Nc3ccc(F)c(Cl)c3)c2)nc1	280	392	4020	17300	> 100000						
CNC(=O)c1ccc(Sc2ccc(NC(=S)Nc3cccc(C(F)(F)F)c3)cc2)nc1	503	571	> 10000	25900	53100						
CNC(=O)c1ccc(Sc2ccc(NC(=O)Nc3cc(C(F)(F)F)cc(C(F)(F)F)c3)cc2)nc1	93	196	508	7090	45200						
CNC(=O)c1ccc(Sc2ccc(NC(=S)Nc3ccc(F)c(C(F)(F)F)c3)cc2)nc1	33	45	74	6370	29300						
CNC(=O)c1ccc(Sc2ccc(NC(=S)Nc3ccc(F)c(F)c3)cc2)nc1	810	892	> 10000	22200	52600						
CNC(=O)c1ccc(Sc2ccc(NC(=S)Nc3ccc(Cl)c(C(F)(F)F)c3)cc2)nc1	27	28	46	4900	23500	949	701	> 1000	100		
CNC(=O)c1ccc(Sc2cccc(NC(=S)Nc3ccc(F)c(C(F)(F)F)c3)c2)nc1	69	77	61	18200	42400						
CNC(=O)c1ccc(Sc2cccc(NC(=S)Nc3ccc(F)c(F)c3)c2)nc1	442	539	3860	35100	58200						
CNC(=O)c1cc(Oc2ccc(NC(=O)Nc3ccc(Cl)c(C(F)(F)F)c3)cc2)ccn1 [SORAFENIB]					36500					Active	100
CNC(=O)c1ccc(Sc2cccc(NC(=S)Nc3cc(C(F)(F)F)cc(C(F)(F)F)c3)c2)nc1	158	169	887	5020	54200						
CNC(=O)c1ccc(Sc2cccc(NC(=S)Nc3ccc(Cl)c(C(F)(F)F)c3)c2)nc1	17	16	63	5180	19800	781	> 1000	596	100		
CNC(=O)c1ccc(Sc2cccc(NC(=S)Nc3ccc(OC(F)(F)F)cc3)c2)nc1	5850	7480	> 10000	24500	91000						
CNC(=O)c1ccc(Sc2ccc(NC(=O)Nc3ccc(F)c(C(F)(F)F)c3)cc2)nc1	48	65	102	5800	39600						
CNC(=O)c1ccc(Sc2ccc(NC(=O)Nc3ccc(Cl)c(C(F)(F)F)c3)cc2)nc1	21	29	84	5290	24600	67	535	> 1000	100		
CNC(=O)c1ccc(Sc2cccc(NC(=S)Nc3ccc(Cl)cc3)c2)nc1	791	857	5990	39500	67500						
CNC(=O)c1ccc(Sc2cccc(NC(=S)Nc3cccc(C(F)(F)F)c3)c2)nc1	973	1270	6910	16100	19200						
CNC(=O)c1ccc(Sc2cccc(NC(=S)Nc3ccc(Br)c(C(F)(F)F)c3)c2)nc1			133	16500	> 100000						
CNC(=O)c1ccc(Sc2ccc(NC(=S)Nc3ccc(Cl)cc3)cc2)nc1	2060	1780	8660	34500	69300						
